The record followed here is PMC4778918, “Signal Transduction at the Domain Interface of Prokaryotic Pentameric Ligand-Gated Ion Channels” (PLoS Biology, 2016).

For one experiment, the target named is ELIC WT (Dickeya chrysanthemi, UniProt P0C7B7, INS163G). The experiment can be described thus: biochemical. The experiment is classed as binding, Erwinia chrisanthemi. As to conditions: ITC, ELIC WT in detergent (UDM), 4°C, single-site isotherm; read-out: effective dissociation constant (Keff).
Another experiment addresses ELIC T28D (Dickeya chrysanthemi, UniProt P0C7B7, INS163G/T28D). The experiment in a line: biochemical. The experiment is classed as binding, Erwinia chrisanthemi. As to conditions: read-out: Keff.

Take `CC(=O)OCC[N+](C)(C)C` [acetylcholine]: the Kd worked out at 2500 µM on ELIC WT and 2000 µM at ELIC T28D.
